In assay [1] the target is T1, human sphingosine-1-phosphate receptor 1 (S1P1) (Homo sapiens, UniProt P21453). As to the kind of experiment: Inhibition of cAMP production (HTRF cAMP HiRange), S1P1 CHO-K1 cells. It counts as cell-based. The following applies: for Emax: CHO-K1, efficacy normalized to maximum efficacy of fingolimod, read-out: hS1P1 CAMP SPAN; for EC50: read-out: hS1P1 CAMP pEC50 (converted). The method, boiled down: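 CHO-K1 cells co-expressing human S1P1 (C-terminal ProLink tag) and EA-β-arrestin2, plated overnight; after 30 min compound incubation at 37 °C, intracellular cAMP measured by HTRF TR-FRET following 1 h at room temperature. Values normalized to fingolimod.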
Target sequence in this assay (P21453 whole entry): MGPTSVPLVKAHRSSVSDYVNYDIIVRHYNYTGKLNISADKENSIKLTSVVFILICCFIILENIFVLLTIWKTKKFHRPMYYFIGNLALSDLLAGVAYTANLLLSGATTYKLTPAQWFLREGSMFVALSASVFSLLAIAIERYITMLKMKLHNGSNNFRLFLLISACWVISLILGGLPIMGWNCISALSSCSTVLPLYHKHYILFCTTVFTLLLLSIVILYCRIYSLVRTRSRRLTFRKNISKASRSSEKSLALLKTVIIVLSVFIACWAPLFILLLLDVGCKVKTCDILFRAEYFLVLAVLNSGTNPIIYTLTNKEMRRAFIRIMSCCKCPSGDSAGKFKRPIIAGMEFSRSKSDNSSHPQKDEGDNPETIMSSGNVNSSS

Assay [2] addresses T1, human sphingosine-1-phosphate receptor 1 (S1P1). As to the kind of experiment: β-Arrestin2 recruitment assay (PathHunter), S1P1 CHO-K1 cells. It is filed as cell-based. The following applies: for Emax: efficacy normalized to maximum efficacy of fingolimod, read-out: hS1P1 B-arrestin2 SPAN; for EC50: β-arrestin2 recruitment, read-out: hS1P1 B-arrestin2 pEC50 (converted). Put shortly: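 CHO-K1 cells co-expressing EA-β-arrestin2 and ProLink-tagged human S1P1 plated overnight, then stimulated 60 min at 37 °C. Enzyme-fragment complementation (β-galactosidase) detected after 1 h at room temperature by luminescence; values normalized to fingolimod.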
Target sequence in this assay (P21453 whole entry): as above
Target sequence in this assay (P32121 whole entry partner): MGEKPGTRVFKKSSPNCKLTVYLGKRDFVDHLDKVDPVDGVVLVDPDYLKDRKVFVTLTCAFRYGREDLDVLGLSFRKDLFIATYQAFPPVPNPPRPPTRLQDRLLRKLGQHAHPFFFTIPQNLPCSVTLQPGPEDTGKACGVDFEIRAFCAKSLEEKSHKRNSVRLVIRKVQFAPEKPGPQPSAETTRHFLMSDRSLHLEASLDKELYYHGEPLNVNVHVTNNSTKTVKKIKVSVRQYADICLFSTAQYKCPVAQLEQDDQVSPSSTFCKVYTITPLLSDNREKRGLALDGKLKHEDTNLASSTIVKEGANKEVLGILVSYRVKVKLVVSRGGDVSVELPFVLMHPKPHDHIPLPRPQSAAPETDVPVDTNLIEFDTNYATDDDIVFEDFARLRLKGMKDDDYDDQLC

[3] abbreviates: inhibition of cAMP production, potency.
[4] abbreviates: CHO-K1, β-arrestin2 recruitment.
[5] abbreviates: inhibition of cAMP production, S1P1.

For `Cc1nccnc1-c1nc(-c2ccc3c(c2)nnn3C(C)C)no1` [Compound 44, 3-(1-isopropyl-1H-benzo[d][1,2,3]triazol-5-yl)-5-(3-methylpyrazin-2-yl)-1,2,4-oxadiazole], the Emax in assay [1] (inhibition of cAMP production) and in assay [2] (setting [4]) was under 75% throughout. The EC50 in assay [1] (setting [3]) is over 316 nM; in assay [2] (potency), over 10 µM.

As to `CCC1(CC)CC(=O)c2cc(-c3nc(-c4ccc(C(=O)N(C)C)cc4)no3)ccc2O1` [Compound 151, 4-(5-(2,2-diethyl-4-oxochroman-6-yl)-1,2,4-oxadiazol-3-yl)-N,N-dimethylbenzamide], the Emax in assay [1] (inhibition of cAMP production) and in assay [2] (setting [4]) was over 75% throughout. Besides, the EC50 in assay [1] (setting [3]) was over 316 nM; in assay [2] (potency), over 10 µM.

In the case of `CCC1(CC)CC(=O)c2cc(-c3nc(-c4ccccc4OC)no3)ccc2O1` [Compound 268, 2,2-diethyl-6-[3-(2-methoxyphenyl)-1,2,4-oxadiazol-5-yl]chroman-4-one], the Emax in assay [1] (inhibition of cAMP production) and in assay [2] (setting [4]) was over 75% throughout. For the same compound, the figures for the EC50 in assay [1] (setting [3]) and in assay [2] (potency) were under 316 nM and under 10 µM, respectively.

For `CCC1(CC)CC(=O)c2cc(-c3nc(-c4cccs4)no3)ccc2O1` [Compound 467, 2,2-diethyl-6-(3-(thiophen-2-yl)-1,2,4-oxadiazol-5-yl)chroman-4-one], the Emax in assay [1] and in assay [2] (CHO-K1) was over 75% each time. In addition, the EC50 in assay [1] (setting [5]) was under 316 nM; in assay [2] (S1P1), under 10 µM.

Regarding `CSc1ccccc1-c1nc(-c2ccc3c(c2)nnn3C2CCCC2)no1` [Compound 16, 3-(1-cyclopentyl-1H-benzo[d][1,2,3]triazol-5-yl)-5-(2-(methylthio)phenyl)-1,2,4-oxadiazole], the Emax in assay [1] (inhibition of cAMP production) is under 75%; in assay [2] (setting [4]), over 75%. The EC50 in assay [1] (setting [3]) is over 316 nM; in assay [2] (potency) it was under 10 µM.

As for `CC(C)Nc1ccc(-c2nc(-c3ccc4c(c3)CCNC4=O)no2)cc1C#N` [Compound 442, 2-(isopropylamino)-5-(3-(1-oxo-1,2,3,4-tetrahydroisoquinolin-6-yl)-1,2,4-oxadiazol-5-yl)benzonitrile], the Emax in assay [1] and in assay [2] (CHO-K1) was over 75% each time. The values for the EC50 in assay [1] (setting [5]) and in assay [2] (S1P1) were under 316 nM and under 10 µM, respectively.

Turning to `CC(C)n1ccc2cc(-c3nc(-c4ccccc4F)cs3)cnc21` [Compound 402, 4-(2-fluorophenyl)-2-(1-isopropyl-1H-pyrrolo[2,3-b]pyridin-5-yl)thiazole], the Emax in assay [1] and in assay [2] (CHO-K1) was under 75% in each case. The EC50 in assay [1] (setting [5]) is under 316 nM; in assay [2] (S1P1) it was over 10 µM.

On to `Cn1ccnc1-c1noc(-c2ccc3c(c2)nnn3CC(C)(C)O)n1` [Compound 567, 2-methyl-1-(5-[3-(1-methyl-1H-imidazol-2-yl)-1,2,4-oxadiazol-5-yl]-1H-1,2,3-benzotriazol-1-yl}propan-2-ol], for which the values for the Emax in assay [1] and in assay [2] (CHO-K1) were over 75% and under 75%, respectively. Also, the EC50 was over 316 nM in assay [1] (setting [5]) and over 10 µM in assay [2] (S1P1).

Consider `CC(C)n1ccc2cc(-c3noc(-c4ccncc4F)n3)ccc21` [Compound 399, 5-(3-fluoropyridin-4-yl)-3-(1-isopropyl-1H-indol-5-yl)-1,2,4-oxadiazole], for which the Emax in assay [1] is over 75%; in assay [2] (CHO-K1), under 75%. Moreover, the EC50 in assay [1] (setting [5]) is under 316 nM; in assay [2] (S1P1), under 10 µM.

As for `Cc1ccccc1-c1noc(-c2ccc3c(c2)CCC(=O)N3)n1` [Compound 365, 6-[3-(2-methylphenyl)-1,2,4-oxadiazol-5-yl]-1,2,3,4-tetrahydroquinolin-2-one], the figures for the Emax in assay [1] (inhibition of cAMP production) and in assay [2] (setting [4]) were over 75% and under 75%, respectively. For the same compound, the EC50 in assay [1] (setting [3]) was over 316 nM; in assay [2] (potency) it was under 10 µM.

In the case of `Cc1nc2cc(-c3nnc(-c4ccc(NCC(F)F)c(C#N)c4)o3)ccc2[nH]1` [Compound 561, 2-[(2,2-difluoro-ethyl)amino]-5-[5-(2-methyl-1H-1,3-benzodiazol-5-yl)-1,3,4-oxadiazol-2-yl]benzonitrile], the results for the Emax in assay [1] and in assay [2] (CHO-K1) were over 75% and under 75%, respectively. Also, the values for the EC50 in assay [1] (setting [5]) and in assay [2] (S1P1) were under 316 nM and under 10 µM, respectively.

`CC(C)Cn1nnc2cc(-c3nc(-c4ccccc4Cl)no3)ccc21` [Compound 289, 5-[3-(2-chlorophenyl)-1,2,4-oxadiazol-5-yl]-1-(2-methylpropyl)-1H-1,2,3-benzotriazole]: the Emax in assay [1] (inhibition of cAMP production) and in assay [2] (setting [4]) was under 75% throughout. Moreover, the EC50 is over 316 nM in assay [1] (setting [3]) and over 10 µM in assay [2] (potency).

On to `CCC1(CC)CC(=O)c2cc(-c3nc(-c4ccc5ncoc5c4)no3)ccc2O1` [Compound 622, 6-(3-(benzo[d]oxazol-6-yl)-1,2,4-oxadiazol-5-yl)-2,2-diethyl-chroman-4-one], for which the Emax in assay [1] is over 75%; in assay [2] (CHO-K1) it was under 75%. The EC50 in assay [1] (setting [5]) is under 316 nM; in assay [2] (S1P1), over 10 µM.

In the case of `COc1ccccc1-c1cnc(-c2ccc3c(c2)nnn3C(C)C)s1` [Compound 184, 2-(1-isopropyl-1H-benzo[d][1,2,3]triazol-5-yl)-5-(2-methoxy-phenyl)thiazole], the Emax in assay [1] (inhibition of cAMP production) was over 75%; in assay [2] (setting [4]), under 75%. Moreover, the results for the EC50 in assay [1] (setting [3]) and in assay [2] (potency) were over 316 nM and over 10 µM, respectively.

Turning to `CC(C)n1ccc2cc(-c3nsc(-c4ccccc4F)n3)ccc21` [Compound 380, 5-[5-(2-fluorophenyl)-1,2,4-thiadiazol-3-yl]-1-(propan-2-yl)-1H-indole], the Emax in assay [1] and in assay [2] (CHO-K1) was under 75% in each case. Moreover, the values for the EC50 in assay [1] (setting [5]) and in assay [2] (S1P1) were over 316 nM and over 10 µM, respectively.

As for `CCC1(CC)CC(=O)c2cc(-c3nc(-c4ccsc4)no3)ccc2O1` [Compound 468, 2,2-diethyl-6-(3-(thiophen-3-yl)-1,2,4-oxadiazol-5-yl)chroman-4-one], the Emax in assay [1] and in assay [2] (CHO-K1) was over 75% each time. Besides, the figures for the EC50 in assay [1] (setting [5]) and in assay [2] (S1P1) were under 316 nM and under 10 µM, respectively.

For `CCC1(CC)CC(=O)c2cc(-c3nc(-c4ccc(S(=O)(=O)NC)cc4)no3)ccc2O1` [Compound 266, 4-(5-(2,2-diethyl-4-oxochroman-6-yl)-1,2,4-oxadiazol-3-yl)-N-methylbenzene-sulfonamide], the Emax in assay [1] (inhibition of cAMP production) and in assay [2] (setting [4]) was over 75% in each case. The EC50 was over 316 nM in assay [1] (setting [3]) and under 10 µM in assay [2] (potency).

Regarding `CC1CC(=O)c2ccc(-c3nc(-c4ccncc4)no3)cc2O1` (stereo not shown) [Compound 536, 2-methyl-7-[3-(pyridin-4-yl)-1,2,4-oxadiazol-5-yl]-3,4-dihydro-2H-1-benzopyran-4-one], the Emax in assay [1] and in assay [2] (CHO-K1) was under 75% each time. Moreover, the EC50 in assay [1] (setting [5]) was over 316 nM; in assay [2] (S1P1), under 10 µM.

In the case of `CC(C)Cn1nnc2cc(-c3nc4c(Cl)cccc4o3)ccc21` [Compound 453, 4-chloro-2-(1-isobutyl-1H-benzo[d][1,2,3]triazol-5-yl)benzo[d]oxazole], the Emax is over 75% in assay [1] and under 75% in assay [2] (CHO-K1). Besides, the EC50 in assay [1] (setting [5]) is under 316 nM.

`CC(C)n1nnc2cc(-c3cc(-c4ccccc4F)c[nH]3)ccc21` [Compound 542, 5-[4-(2-fluorophenyl)-1H-pyrrol-2-yl]-1-(propan-2-yl)-1H-1,2,3-benzotriazole]: the Emax in assay [1] and in assay [2] (CHO-K1) was under 75% in each case. Also, the EC50 in assay [1] (setting [5]) was over 316 nM; in assay [2] (S1P1), under 10 µM.

(Values after patent US20230114241A1, “METHODS OF TREATING EPILEPSY USING THE SAME” (Trevena, Inc., priority 2019, published 2023).)
